This note sets out measurements from EP2951180B1, “2,6,7,8 SUBSTITUTED PURINES AS HDM2 INHIBITORS” (Merck Sharp & Dohme Corp., priority 2013, dated 2014).

Each structure is given as a SMILES string.

T1 sequence (Q00987 17-125): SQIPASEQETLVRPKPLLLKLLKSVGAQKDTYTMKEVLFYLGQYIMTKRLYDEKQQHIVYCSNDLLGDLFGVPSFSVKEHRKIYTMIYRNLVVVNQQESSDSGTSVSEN

The test has as its target T1, HDM2 (Homo sapiens, UniProt Q00987).
T1 construct: Thioredoxin (N); made in house; host or cells: E. coli strain BL21(DE3)Rosetta
As to the kind of experiment: HDM2 FRET assay (inhibition of binding of FITC labeled p53-pocket peptide to HDM2). To be noted: Table 6; read-out: FRET IC50. An outline of the steps: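 TR-FRET with 0.5 nM His-tagged recombinant HDM2, 3 nM FITC-labelled p53 peptide and 0.25 nM Tb-anti-His antibody in PBS, 0.01% BSA, 0.01% Tween-20, 0.1% DMSO. IC50 from em520/em495 ratio over 10-point dilutions, 4-parameter logistic fit.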
As usually defined, the IC50 is the concentration that inhibits the measured activity by half. `Cc1cccc(-c2nc3nc(C(=O)O)nc(NCc4ccccc4)c3n2Cc2ccc(C(F)(F)F)cc2)c1` [Example 6.29, 6-(benzylamino)-8-(3-methylphenyl)-7-[4-(trifluoromethyl)benzyl]-7H-purine-2-carboxylic acid]: the IC50 came out at 1770 nM.
For `Cc1cccc(-c2nc3nc(C(=O)O)nc(N[C@H](C)c4ccccc4)c3n2Cc2ccc(C(F)(F)F)cc2)c1` [Example 6.30, 8-(3-methylphenyl)-6-{[(1R)-1-phenylethyl]amino}-7-[4-(trifluoromethyl)benzyl]-7H-purine-2-carboxylic acid] the value was 1490 nM; for `Cc1cccc(-c2nc3nc(C(=O)O)nc(N[C@@H](C)c4ccccc4)c3n2Cc2ccc(C(F)(F)F)cc2)c1` [Example 6.31, 8-(3-methylphenyl)-6-{[(1S)-1-phenylethyl]amino}-7-[4-(trifluoromethyl)benzyl]-7H-purine-2-carboxylic acid], 4300 nM.
Consider `Cc1cccc(-c2nc3nc(C(=O)O)nc(NC(C)C4CCCC4)c3n2Cc2ccc(C(F)(F)F)cc2)c1` (stereo not shown) [Example 6.32, 6-[(1-cyclopentylethyl)amino]-8-(3-methylphenyl)-7-[4-(trifluoromethyl)benzyl]-7H-purine-2-carboxylic acid], for which the IC50 was 373 nM.
Under `Cc1cccc(-c2nc3nc(C(=O)O)nc(NC4CCC(C)CC4C)c3n2Cc2ccc(C(F)(F)F)cc2)c1` (stereo not shown) [Example 6.33, 6-[(2,4-dimethylcyclohexyl)amino]-8-(3-methylphenyl)-7-[4-(trifluoromethyl)benzyl]-7H-purine-2-carboxylic acid] stands 305 nM.
For the compound `Cc1cccc(-c2nc3nc(C(=O)O)nc(NC4CCC(C)CC4C)c3n2Cc2ccc(C(F)(F)F)cc2)c1` (stereo not shown) [Example 6.34, 6-[(2,4-dimethylcyclohexyl)amino]-8-(3-methylphenyl)-7-[4-(trifluoromethyl)benzyl]-7H-purine-2-carboxylic acid], the IC50 turned out to be 1140 nM.
For the compound `Cc1cccc(-c2nc3nc(C(=O)O)nc(NC4CCC(CNC(=O)OC(C)(C)C)CC4)c3n2Cc2ccc(C(F)(F)F)cc2)c1` (stereo not shown) [Example 6.35, 6-[(4-{[(tert-butoxycarbonyl)amino]methyl}cyclohexyl)amino]-8-(3-methylphenyl)-7-[4-(trifluoromethyl)benzyl]-7H-purine-2-carboxylic acid], the IC50 came to 2340 nM.
With `Cc1cccc(-c2nc3nc(C(=O)O)nc(NCC4CC4)c3n2Cc2ccc(C(F)(F)F)cc2)c1` [Example 6.36, 6-[(cyclopropylmethyl)amino]-8-(3-methylphenyl)-7-[4-(trifluoromethyl)benzyl]-7H-purine-2-carboxylic acid], the IC50 turned out to be 670 nM.
Turning to `Cc1cccc(-c2nc3nc(C(=O)O)nc(NC(C)C4CC4C)c3n2Cc2ccc(C(F)(F)F)cc2)c1` (stereo not shown) [Example 6.37, 6-{[1-(2-methylcyclopropyl)ethyl]amino}-8-(3-methylphenyl)-7-[4-(trifluoromethyl)benzyl]-7H-purine-2-carboxylic acid], the IC50 worked out at 360 nM.
Under `Cc1cccc(-c2nc3nc(C(=O)O)nc(NC(C)C4CC4C)c3n2Cc2ccc(C(F)(F)F)cc2)c1` (stereo not shown) [Example 6.38, 6-{[1-(2-methylcyclopropyl)ethyl]amino}-8-(3-methylphenyl)-7-[4-(trifluoromethyl)benzyl]-7H-purine-2-carboxylic acid] stands 530 nM.
For `Cc1cccc(-c2nc3nc(C(=O)O)nc(NC(C)C(C)(C)O)c3n2Cc2ccc(C(F)(F)F)cc2)c1` (stereo not shown) [Example 6.39, 6-[(2-hydroxy-1,2-dimethylpropyl)amino]-8-(3-methylphenyl)-7-[4-(trifluoromethyl)benzyl]-7H-purine-2-carboxylic acid] the value was 2260 nM; for `Cc1cccc(-c2nc3nc(C(=O)O)nc(NC4CCC(CO)CC4)c3n2Cc2ccc(C(F)(F)F)cc2)c1` (stereo not shown) [Example 6.40, 6-{[4-(hydroxymethyl)cyclohexyl]amino}-8-(3-methylphenyl)-7-[4-(trifluoromethyl)benzyl]-7H-purine-2-carboxylic acid], 925 nM.
With `Cc1cccc(-c2nc3nc(C(=O)O)nc(N[C@@H](C)C(C)(C)C)c3n2Cc2ccc(C(F)(F)F)cc2)c1` [Example 6.41, 8-(3-methylphenyl)-7-[4-(trifluoromethyl)benzyl]-6-{[(1S)-1,2,2-trimethylpropyl]amino}-7H-purine-2-carboxylic acid], the IC50 stood at 638 nM.
For `Cc1cccc(-c2nc3nc(C(=O)O)nc(N[C@H](C)C4CCCCC4)c3n2Cc2ccc(C(F)(F)F)cc2)c1` [Example 6.42, 6-{[(1R)-1-cyclohexylethyl]amino}-8-(3-methylphenyl)-7-[4-(trifluoromethyl)benzyl]-7H-purine-2-carboxylic acid] the value was 564 nM.
For `Cc1cccc(-c2nc3nc(C(=O)O)nc(NC4CCOCC4)c3n2Cc2ccc(C(F)(F)F)cc2)c1` [Example 6.43, 8-(3-methylphenyl)-6-(tetrahydro-2H-pyran-4-ylamino)-7-[4-(trifluoromethyl)benzyl]-7H-purine-2-carboxylic acid] the value was 1710 nM.
Under `Cc1cccc(-c2nc3nc(C(=O)O)nc(N[C@H](C)c4ccc(Cl)cc4)c3n2Cc2ccc(C(F)(F)F)cc2)c1` [Example 6.44, 6-{[(1R)-1-(4-chlorophenyl)ethyl]amino}-8-(3-methylphenyl)-7-[4-(trifluoromethyl)benzyl]-7H-purine-2-carboxylic acid] stands 372 nM; under `Cc1cccc(-c2nc3nc(C(=O)O)nc(N[C@@H](C)C4CCCCC4)c3n2Cc2ccc(C(F)(F)F)cc2)c1` [Example 6.45, 6-{[(1S)-1-cyclohexylethyl]amino}-8-(3-methylphenyl)-7-[4-(trifluoromethyl)benzyl]-7H-purine-2-carboxylic acid], 1610 nM.
As to `Cc1cccc(-c2nc3nc(C(=O)O)nc(N[C@@H](C)c4ccc(Cl)cc4)c3n2Cc2ccc(C(F)(F)F)cc2)c1` [Example 6.46, 6-{[(1S)-1-(4-chlorophenyl)ethyl]amino}-8-(3-methylphenyl)-7-[4-(trifluoromethyl)benzyl]-7H-purine-2-carboxylic acid], the IC50 was found to be 4120 nM.
For `Cc1cccc(-c2nc3nc(C(=O)O)nc(N[C@H](C)C(C)(C)C)c3n2Cc2ccc(C(F)(F)F)cc2)c1` [Example 6.47, 8-(3-methylphenyl)-7-[4-(trifluoromethyl)benzyl]-6-{[(1R)-1,2,2-trimethylpropyl]amino}-7H-purine-2-carboxylic acid], the IC50 stood at 448 nM.
For `Cc1cccc(-c2nc3nc(C(=O)O)nc(N[C@H](C)C(C)C)c3n2Cc2ccc(C(F)(F)F)cc2)c1` [Example 6.48, 6-{[(1R)-1,2-dimethylpropyl]amino}-8-(3-methylphenyl)-7-[4-(trifluoromethyl)benzyl]-7H-purine-2-carboxylic acid] the value was 145 nM; for `Cc1cccc(-c2nc3nc(C(=O)O)nc(N[C@@H](C)C(C)C)c3n2Cc2ccc(C(F)(F)F)cc2)c1` [Example 6.49, 6-{[(1S)-1,2-dimethylpropyl]amino}-8-(3-methylphenyl)-7-[4-(trifluoromethyl)benzyl]-7H-purine-2-carboxylic acid], 622 nM; for `Cc1cccc(-c2nc3nc(C(=O)O)nc(NCC4CCCCC4)c3n2Cc2ccc(C(F)(F)F)cc2)c1` [Example 6.50, 6-[(cyclohexylmethyl)amino]-8-(3-methylphenyl)-7-[4-(trifluoromethyl)benzyl]-7H-purine-2-carboxylic acid], 1370 nM.
